Assay results published in ChEMBL document CHEMBL1909294, “Translating clinical findings into knowledge in drug safety evaluation--drug induced liver injury prediction system (DILIps)” (PLoS Comput Biol, 2011).

tested on: Hepatotoxicity; conditions: not given
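Note: binary label assigned from drug-induced liver injury observed in pharmaceutical company records, forming the validation set for the DILIps prediction system.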

Row | Structure (SMILES) | DILI positive/negative
1 | O=C1O[C@H]([C@@H](O)CO)C(O)=C1O [ASCORBIC ACID] | 0
2 | COc1ccc(CCN2CCC(Nc3nc4ccccc4n3Cc3ccc(F)cc3)CC2)cc1 [ASTEMIZOLE] | 0
3 | C=C1[C@@H]2CCC3[C@@](CC[C@@H]4[C@H](C(=O)O)C[C@@H](O[C@@H]5O[C@H](CO)[C@@H](OS(=O)(=O)[O-])[C@H](OS(=O)(=O)[O-])[C@H]5OC(=O)CC(C)C)C[C@@]34C)(C2)[C@@H]1O.[K+].[K+] (stereo partly specified) [ATRACTYLOSIDE] | 1
4 | Cl.Cl.O=C(CCN1CCN2CCCC2C1)N1c2ccccc2Sc2ccc(Cl)cc21 (stereo unspecified) [AZACLORZINE HYDROCHLORIDE] | 1
5 | CN1CCC(=C2c3ccccc3CCc3cccnc32)CC1.O=C(O)/C=C\C(=O)O.O=C(O)/C=C\C(=O)O [AZATADINE MALEATE] | 1
6 | CC1(C)S[C@@H]2[C@H](NC(=O)[C@H](NC(=O)N3CCNC3=O)c3ccccc3)C(=O)N2[C@H]1C(=O)[O-].[Na+] [AZLOCILLIN SODIUM] | 0
7 | CC(C)COCC(CN(Cc1ccccc1)c1ccccc1)N1CCCC1.Cl.O (stereo unspecified) [BEPRIDIL HYDROCHLORIDE] | 1
8 | Oc1c(Cl)cc(Cl)cc1Sc1cc(Cl)cc(Cl)c1O [BITHIONOL] | 1
9 | Brc1ccccc1 [BROMOBENZENE] | 1
10 | CN(C)CCC(c1ccc(Br)cc1)c1ccccn1.O=C(O)/C=C\C(=O)O (stereo unspecified) [BROMPHENIRAMINE MALEATE] | 0
11 | C=C1CC[C@H](O)C/C1=C/C=C1\CCC[C@]2(C)[C@@H]([C@H](C)CCCC(C)(C)O)CC[C@@H]12.O [CALCIFEDIOL] | 1
12 | COc1cc(CNC(=O)CCCC/C=C/C(C)C)ccc1O [CAPSAICIN] | 0
13 | CC1(C)[C@@H](OC(=O)CCC(=O)[O-])CC[C@]2(C)[C@H]3C(=O)C=C4[C@@H]5C[C@@](C)(C(=O)[O-])CC[C@]5(C)CC[C@@]4(C)[C@]3(C)CC[C@@H]12.[Na+].[Na+] [CARBENOXOLONE SODIUM] | 0
14 | Cn1nnnc1SCC1=C(C(=O)[O-])N2C(=O)[C@@H](NC(=O)[C@H](O)c3ccccc3)[C@H]2SC1.[Na+] [CEFAMANDOLE SODIUM] | 1
15 | CCN1CCN(C(=O)N[C@@H](C(=O)N[C@@H]2C(=O)N3C(C(=O)O)=C(CSc4nnnn4C)CS[C@H]23)c2ccc(O)cc2)C(=O)C1=O.O.O [CEFOPERAZONE DIHYDRATE] | 0
16 | CN(C)CCn1nnnc1SCC1=C(C(=O)O)N2C(=O)[C@@H](NC(=O)Cc3csc(N)n3)[C@H]2SC1.Cl.Cl [CEFOTIAM HYDROCHLORIDE] | 1
17 | CC(=O)OCC1=C(C(=O)[O-])N2C(=O)[C@@H](NC(=O)Cc3cccs3)[C@H]2SC1.[Na+] [CEPHALOTHIN SODIUM] | 1
18 | CC(=O)OCC1=C(C(=O)[O-])N2C(=O)[C@@H](NC(=O)CSc3ccncc3)[C@H]2SC1.[Na+] [CEPHAPIRIN SODIUM] | 0
19 | C[C@H](CCC(=O)O)[C@H]1CC[C@H]2[C@@H]3[C@H](O)C[C@@H]4C[C@H](O)CC[C@]4(C)[C@H]3CC[C@]12C [CHENODIOL] | 1
20 | CN(C)[C@@H]1C(O)=C(C(N)=O)C(=O)[C@@]2(O)C(O)=C3C(=O)c4c(O)ccc(Cl)c4[C@@](C)(O)[C@H]3C[C@@H]12.Cl [CHLORTETRACYCLINE HYDROCHLORIDE] | 1
21 | CC1(COc2ccc(CC3SC(=O)NC3=O)cc2)CCCCC1 (stereo unspecified) [CIGLITAZONE] | 1
22 | Cc1onc(-c2ccccc2Cl)c1C(=O)N[C@@H]1C(=O)N2[C@@H]1SC(C)(C)[C@@H]2C(=O)[O-].O.[Na+] [CLOXACILLIN SODIUM] | 1

Row | Structure (SMILES) | DILI positive/negative
23 | CN1CCN(C(c2ccccc2)c2ccccc2)CC1 [CYCLIZINE] | 1
24 | CN(CCCCCCCCCCN(C)C(=O)Oc1cccc([N+](C)(C)C)c1)C(=O)Oc1cccc([N+](C)(C)C)c1.[Br-].[Br-] [DEMECARIUM BROMIDE] | 1
25 | Br.COc1ccc2c(c1)[C@]13CCCC[C@@H]1[C@H](C2)N(C)CC3.O [DEXTROMETHORPHAN HYDROBROMIDE] | 0
26 | C[C@H](CCc1ccccc1)NC[C@H](O)c1ccc(O)c(C(N)=O)c1 [DILEVALOL] | 1
27 | CCOC(=O)C1(c2ccccc2)CCN(CCC(C#N)(c2ccccc2)c2ccccc2)CC1.Cl [DIPHENOXYLATE HYDROCHLORIDE] | 0
28 | CC[N+](C)(C)c1cccc(O)c1.[Cl-] [EDROPHONIUM CHLORIDE] | 0
29 | C[C@@H](CO)NC(=O)[C@@H]1C=C2c3cccc4[nH]cc(c34)C[C@H]2N(C)C1.O=C(O)/C=C\C(=O)O [ERGONOVINE MALEATE] | 0
30 | C[C@]12CC[C@@H]3c4ccc(O)cc4CC[C@H]3[C@@H]1CCC2=O [ESTRONE] | 1
31 | C#C[C@]1(O)CC[C@H]2[C@@H]3CCc4cc(O)ccc4[C@H]3CC[C@@]21C [ETHINYL ESTRADIOL] | 1
32 | CCSCC[C@H](N)C(=O)O [ETHIONINE] | 1
33 | C#C[C@]1(OC(C)=O)CC[C@H]2[C@@H]3CCC4=C[C@@H](OC(C)=O)CC[C@@H]4[C@H]3CC[C@@]21C [ETHYNODIOL DIACETATE] | 1
34 | O=c1[nH]c(=O)n([C@H]2C[C@H](O)[C@@H](CO)O2)cc1F [FLOXURIDINE] | 1
35 | CC[N+](CC)(CC)CCOc1cccc(OCC[N+](CC)(CC)CC)c1OCC[N+](CC)(CC)CC.[I-].[I-].[I-] [GALLAMINE TRIETHIODIDE] | 0
36 | CCC1(c2ccccc2)CCC(=O)NC1=O (stereo unspecified) [GLUTETHIMIDE] | 1
37 | CCN(CC)CCNc1ccc(CO)c2sc3ccccc3c(=O)c12 [HYCANTHONE] | 1
38 | CC1(c2ccccc2)Cc2cc(OCC(=O)O)c(Cl)c(Cl)c2C1=O (stereo unspecified) [INDACRINONE] | 1
39 | O=C(O)c1ccncc1 [ISONICOTINIC ACID] | 0
40 | Cc1cc(NC(=O)C2=C(O)c3ccccc3S(=O)(=O)N2C)no1 [ISOXICAM] | 0
41 | N[C@@H](Cc1ccc(O)c(O)c1)C(=O)O [LEVODOPA] | 0
42 | COc1ccc2[nH]cc(CCNC(C)=O)c2c1 [MELATONIN] | 0
43 | CCC1(c2ccccc2)C(=O)NC(=O)N(C)C1=O (stereo unspecified) [MEPHOBARBITAL] | 1
44 | C#C[C@]1(O)CC[C@H]2[C@@H]3CCc4cc(OC)ccc4[C@H]3CC[C@@]21C [MESTRANOL] | 1

Row | Structure (SMILES) | DILI positive/negative
45 | C=C1c2cccc(O)c2C(=O)C2=C(O)[C@]3(O)C(=O)C(C(N)=O)=C(O)[C@@H](N(C)C)[C@@H]3[C@@H](O)[C@H]12.Cl [METHACYCLINE HYDROCHLORIDE] | 1
46 | COc1ccc(OC)c(C(O)C(C)N)c1.Cl (stereo unspecified) [METHOXAMINE HYDROCHLORIDE] | 0
47 | CN1CCN2c3ccccc3Cc3ccccc3C2C1 (stereo unspecified) [MIANSERIN] | 1
48 | COCC(=O)O[C@]1(CCN(C)CCCc2nc3ccccc3[nH]2)CCc2cc(F)ccc2[C@@H]1C(C)C [MIBEFRADIL] | 0
49 | CO[C@@]1(NC(=O)C(C(=O)[O-])c2ccc(O)cc2)C(=O)N2C(C(=O)[O-])=C(CSc3nnnn3C)CO[C@@H]21.[Na+].[Na+] (stereo partly specified) [MOXALACTAM DISODIUM] | 0
50 | COC(=O)C1=C(C)NC(C)=C(C(=O)OCC(C)C)C1c1ccccc1[N+](=O)[O-] (stereo unspecified) [NISOLDIPINE] | 0
51 | COC(=O)Nc1nc2ccc(C(=O)c3cccs3)cc2[nH]1 [NOCODAZOLE] | 0
52 | CCCCC(CC)COC(=O)C=Cc1ccc(OC)cc1 (stereo unspecified) [OCTINOXATE] | 1
53 | CCOc1ccc(NC(C)=O)cc1 [PHENACETIN] | 1
54 | Cl.Nc1ccc(/N=N/c2ccccc2)c(N)n1 [PHENAZOPYRIDINE HYDROCHLORIDE] | 1
55 | c1ccc2c(c1)Nc1ccccc1S2 [PHENOTHIAZINE] | 1
56 | CC(N)C(O)c1ccccc1.Cl (stereo unspecified) [PHENYLPROPANOLAMINE HYDROCHLORIDE] | 0
57 | CC(C)(Sc1cc(C(C)(C)C)c(O)c(C(C)(C)C)c1)Sc1cc(C(C)(C)C)c(O)c(C(C)(C)C)c1 [PROBUCOL] | 0
58 | CN[C@@H](C)[C@@H](O)c1ccccc1.Cl [PSEUDOEPHEDRINE HYDROCHLORIDE] | 0
59 | CCO[C@@H](Cc1ccc(OCCN2c3ccccc3Oc3ccccc32)cc1)C(=O)O [RAGAGLITAZAR] | 0
60 | Nc1ccc(S(=O)(=O)NC(=O)c2ccccc2)cc1 [SULFABENZAMIDE] | 0
61 | CC1CN(c2cc3c(cc2F)c(=O)c(C(=O)O)cn3-c2ccc(F)cc2F)CCN1 (stereo unspecified) [TEMAFLOXACIN] | 1
62 | CCCCNc1ccc(C(=O)OCCN(C)C)cc1.Cl [TETRACAINE HYDROCHLORIDE] | 0
63 | CN1c2ccccc2C(NCCCCCCC(=O)O)c2ccc(Cl)cc2S1(=O)=O (stereo unspecified) [TIANEPTINE] | 1
64 | CN1C(=O)OC(C)(C)C1=O [TRIMETHADIONE] | 1
65 | COc1cc(C(=O)NCc2ccc(OCCN(C)C)cc2)cc(OC)c1OC.Cl [TRIMETHOBENZAMIDE HYDROCHLORIDE] | 1
66 | CN(C)CCN(Cc1ccccc1)c1ccccn1.Cl [TRIPELENNAMINE HYDROCHLORIDE] | 1

same assay, conditions: Liver

Row | Structure (SMILES) | DILI positive/negative
67 | Nc1ncn([C@@H]2O[C@H](CO)[C@@H](O)[C@H]2O)c(=O)n1 [AZACITIDINE] | 1
68 | Cc1c(F)c(N2CCNC(C)C2)cc2c1c(=O)c(C(=O)O)cn2C1CC1 (stereo unspecified) [GREPAFLOXACIN] | 1
69 | CC1(C)S[C@@H]2[C@H](NC(=O)[C@H](NC(=O)N3CCN(S(C)(=O)=O)C3=O)c3ccccc3)C(=O)N2[C@H]1C(=O)[O-].[Na+] [MEZLOCILLIN SODIUM] | 1
70 | C#CC1(O)CC[C@H]2[C@@H]3CCC4=CC(=O)CC[C@@H]4[C@H]3CC[C@@]21CC (stereo partly specified) [NORGESTREL] | 1
71 | O=S(=O)(O)O.Oc1cccc2cccnc12.Oc1cccc2cccnc12 [OXYQUINOLINE SULFATE] | 1
